Reference: publication PMC2647841, “Sulfatide Recognition by Colonization Factor Antigen CS6 from Enterotoxigenic Escherichia coli” (PLoS ONE, 2009)

Molecular target: T1, CS6 protein (coli surface antigen 6; CS6 adhesin) (Escherichia coli, UniProt P53510)
T1 construct: gene cssB; CS6 complex (CssA and CssB structural subunits; operon cssA-cssD, recombinant plasmid pJT-CS6), no tag stated; secreted by E. coli TOP10-CS6, ammonium sulfate precipitate of culture supernatant; 125I-labelled; with CS6 fimbrial subunit A
Assay: microtiter well binding of […]-labelled CS6 to coated glycosphingolipid
Conditions: amount of glycosphingolipid coated per well, not a concentration; room temperature, 4 h

T1 sequence (P53508 19-154): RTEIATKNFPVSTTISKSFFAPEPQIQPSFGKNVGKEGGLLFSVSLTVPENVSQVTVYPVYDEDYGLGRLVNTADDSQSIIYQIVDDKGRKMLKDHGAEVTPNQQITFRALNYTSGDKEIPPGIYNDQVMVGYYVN
T1 sequence (P53510 22-167): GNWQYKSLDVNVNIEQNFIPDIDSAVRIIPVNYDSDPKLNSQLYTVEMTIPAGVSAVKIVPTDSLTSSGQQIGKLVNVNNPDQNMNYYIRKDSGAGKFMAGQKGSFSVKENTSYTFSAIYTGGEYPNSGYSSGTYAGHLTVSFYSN

Sulfatide [compound 3]
half-maximal binding: ~ 100 ng
